The target of the assay is T1, human M2 acetylcholine receptor (M2AChR) (Homo sapiens, UniProt P08172).
T1 construct: expressed in transfected cells; host or cells: CHO K1 (Chinese hamster ovary) cells constitutively expressing mitochondrially targeted aequorin and stably transfected with Galpha16
T1 sequence (P08172 1-466): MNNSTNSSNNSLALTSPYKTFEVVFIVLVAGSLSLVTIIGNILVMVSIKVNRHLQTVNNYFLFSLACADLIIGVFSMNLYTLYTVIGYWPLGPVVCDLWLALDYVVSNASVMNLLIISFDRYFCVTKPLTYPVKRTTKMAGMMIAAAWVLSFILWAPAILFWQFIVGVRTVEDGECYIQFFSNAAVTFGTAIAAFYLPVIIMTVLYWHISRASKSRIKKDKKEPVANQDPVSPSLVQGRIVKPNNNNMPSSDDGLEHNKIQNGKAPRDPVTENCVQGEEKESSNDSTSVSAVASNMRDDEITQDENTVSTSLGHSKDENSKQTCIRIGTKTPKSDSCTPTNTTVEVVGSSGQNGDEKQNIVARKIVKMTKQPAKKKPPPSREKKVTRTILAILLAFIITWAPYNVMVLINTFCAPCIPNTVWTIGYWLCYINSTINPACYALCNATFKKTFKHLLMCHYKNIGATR
The experiment in a line: Cellular functional in vitro test (aequorin luminescence in recombinant CHO K1 cells). As to conditions: agonist activity; CHO K1 cells expressing human M2AChR, aequorin and Gα16; luminescence readout. The class given is cell-based. An excerpt:
A recombinant cell line was used to identify agonists of the human M2 acetylcholine receptor (M2A ChR) and to quantify the activity of the substances described herein. The cell is originally derived from a hamster ovary epithelial cell (Chinese Hamster Ovary, CHO K1, ATCC: American Type Culture Collection, Manassas, Va. 20108, USA). The test cell line constitutively expresses a modified form of the calcium-sensitive photoprotein aequorin which after reconstitution with the cofactor coelenterazine emits light when the free calcium concentration in the inner mitochondrial compartment is increased (Rizzuto R. Simpson A W, Brini M, Pozzan T.; Nature 358 (1992) 325-327). The cell is additionally stably transfected with the human M2AChR (Peralta E G, Ashkenazi A, Winslow J W, Smith D H, Ramachandran J, Capon, D J, EMBO Journal 6 (1987) 3923-3929) and with the gene which codes for the promiscuous Gα16 protein (Amatruda T T, Steele D A, Slepak V Z, Simon M I, Proceedings in the National Academy of Science USA 88 (1991), 5587-5591). The resulting M2AChR test cell responds to stimulation of the recombinant M2ACh receptor with an intracellular release of calcium ions, which can be quantified through the resulting aequorin luminescence with a suitable luminometer (Milligan G, Marshall F, Rees S, Trends in Pharmacological Sciences 17 (1996) 235-237).
Test procedure: The cells are plated out on the day before the test in culture medium (DMEM, 10% FCS, 2 mM glutamine, 10 mM HEPES; Gibco Cat.#21331-020; now belongs to: Invitrogen GmbH, 76131 Karlsruhe) in 384 (or 1536) well microtiter plates and kept in a cell incubator (96% humidity, 5% v/v CO2, 37° C.). On the day of the test, the culture medium is replaced by a Tyrode solution (in mM: 140 NaCl, 5 KCl, 1 MgCl2, 2 CaCl2, 20 glucose, 20 HEPES) which additionally contains the cofactor coelenterazine (50 μM), and the microtiter plate is then incubated for a further 3-4 hours. Immediately after the test substances have been transferred into the wells of the microtiter plate, the resulting light signal is measured in the luminometer.
In general, EC50 refers to the concentration needed to bring the measured effect to its halfway point. Turning to `O=C(NCc1ccsc1)c1ccc2c(c1)N(C(=O)CNC1CCCCC1)CC(=O)N2C1CC1` [Example 12, 4-(N-Cyclohexylglycyl)-1-cyclopropyl-2-oxo-N-(3-thienylmethyl)-1,2,3,4-tetrahydro-6-quinoxalinecarboxamide], the EC50 was 1800 nM.
The figure for `CC(NC(=O)c1ccc2c(c1)N(C(=O)CNC1CCC1)CC(=O)N2C1CC1)c1cccnc1` (stereo not shown) [Example 2, 4-(N-Cyclobutylglycyl)-1-cyclopropyl-2-oxo-N-[1-(3-pyridinyl)ethyl]-1,2,3,4-tetra-hydro-6-quinoxalinecarboxamide] is 1000 nM; for “4-N-[(1-S-Methyl-(2-methylbutyl)glycyl]-1-cyclopropyl-2-oxo-N-[(3-pyridinyl-4-methoxy)ethyl]-1,2,3,4-tetrahydro-6-quinoxalinecarboxamide [Example 26]” it is 16 nM.
Regarding `C[C@H](NC(=O)c1ccc2c(c1)N(C(=O)CNCC(C)(C)C)CC(=O)N2C1CC1)c1ccncc1` [Example 23], the concentration giving a half-maximal response (EC50) was 18 nM.
As for `C[C@H](NC(=O)c1ccc2c(c1)N(C(=O)CN[C@H]1CC[C@H](O)CC1)CC(=O)N2C1CC1)c1ccncc1` [Example 22, 4-N-[(trans-4-Cyclohexanoyl)glycyl]-1-cyclopropyl-2-oxo-N-[1-S-(4-pyridinyl)-ethyl]-1,2,3,4-tetrahydro-6-quinoxalinecarboxamide], the EC50 was found to be 150 nM.
As for “4-N-[(1-S-Methyl-(2-methylbutyl)glycyl]-1-cyclopropyl-2-oxo-N-[1-S-(4-pyridinyl)-ethyl]-1,2,3,4-tetrahydro-6-quinoxalinecarboxamide [Example 25]”, the figure is 6 nM.
Consider `CC(NC(=O)c1ccc2c(c1)N(C(=O)CNC1CCCCC1)CC(=O)N2C1CC1)c1cccnc1` (stereo not shown) [Example 5, 4-(N-Cyclohexylglycyl)-1-cyclopropyl-2-oxo-N-[1-(3-pyridinyl)ethyl]-1,2,3,4-tetrahydro-6-quinoxalinecarboxamide], for which the EC50 came to 37 nM.
`CC(NC(=O)c1ccc2c(c1)N(C(=O)CNC1CCCCC1)CC(=O)N2C1CC1)c1ccncc1` (single isomer, unassigned; (+)) [Example 7, (+)-4-(N-Cyclohexylglycyl)-1-cyclopropyl-2-oxo-N-[1-(4-pyridinyl)ethyl]-1,2,3,4-tetrahydro-6-quinoxalinecarboxamide]: the EC50 came to 5 nM.
As for `C[C@H](NC(=O)c1ccc2c(c1)N(C(=O)CN[C@@H](C)C(C)(C)C)CC(=O)N2C1CC1)c1ccncc1` [Example 24], the EC50 was found to be 32 nM.
As for `CC1CCCC(NCC(=O)N2CC(=O)N(C3CC3)c3ccc(C(=O)NC(C)c4cccnc4)cc32)C1` (stereo not shown) [Example 11, 1-Cyclopropyl-4-[N-(3-methylcyclohexyl)glycyl]-2-oxo-N-[1-(3-pyridinyl)ethyl]-1,2,3,4-tetrahydro-6-quinoxalinecarboxamide], the EC50 was found to be 320 nM.

The values are drawn from patent US20060247244A1, “Quinoxalinones and their use especially in the treatment of cardiovascular diseases” (BAYER HEALTHCARE AG, priority 2002, published 2006).
